Test system: apyrase
Assay: In vitro apyrase assay (screen for apyrase inhibitors, phosphate release read at 630 nm)
Format: biochemical
Conditions: inhibitor conc at 1 mM; 1 hr at room temperature; rounded average of two assay results
Procedure: Method 1: In Vitro Apyrase Assay: Apyrase inhibitors useful as enhancers of pesticidal activity are assessed using an in vitro assay. The method of Windsor, Bio Techniques 33:1024-1030 (November 2002) was used as follows: Screen for Apyrase Inhibitors - 96 well plates were used for the assay: (Greiner bio-one: REF-655901-96 well, PS, F-bottom, Clear, Non-binding) Buffers: • Reaction Buffer: 60 mM Hepes; 3 mM MgCl2, 3 mM CaCl2 and 3 mM ATP (pH 6.5) • Development Buffer A: 2% aqueous ammonium molybdate • Development Buffer B: 11% ascorbic acid in 37.5% TCA in water • Stop buffer C: 2% trisodium citrate in 2% acetic acid solution in water • Add 100 μl of reaction buffer to each well. • Add […] (control) or inhibitor/compound or compounds such as […] or orthovanadate to each well. […] A blank cell indicates either <10% observed inhibition or a large difference between repetitions. In certain examples, the lack of observed inhibition is due to a lack of solubility of the compound under assay conditions, rather than a lack of apyrase inhibitory activity. Roux compound 15 inhibited apyrase in this assay at about 60%.

% Inhibition of Apyrase [%] | Structure (SMILES)
74 | C/C(=N\NC(=O)c1cccc(S(=O)(=O)Nc2ccccc2Cl)c1)c1ccc2ccccc2c1 [I-1, (E)-N-(2-chlorophenyl)-3-(2-(1-(naphthalen-2-yl)ethylidene)hydrazine-1-carbonyl)benzenesulfonamide]
60 | C/C(=N\NC(=O)c1ccc(NS(=O)(=O)c2cccs2)cc1)c1ccc2ccccc2c1 [I-2, (E)-N-(4-(2-(1-(naphthalen-2-yl)ethylidene)hydrazine-1-carbonyl)phenyl)thiophene-2-sulfonamide]
46 | C/C(=N\NC(=O)c1cccc(S(=O)(=O)N2CCOCC2)c1)c1ccc2ccccc2c1 [I-3, (E)-3-(morpholinosulfonyl)-N′-(1-(naphthalen-2-yl)ethylidene)benzohydrazide]
22 | CCCCCCCCC/C(C)=N\NC(=O)c1ccccc1 [I-5, (Z)-N′-(undecan-2-ylidene)benzohydrazide]
22 | C/C(=N\NC(=O)c1cncc(Br)c1)c1ccc2ccccc2c1 [I-6, (E)-5-bromo-N′-(1-(naphthalen-2-yl)ethylidene)nicotinohydrazide]
20 | C/C(=N/NC(=O)c1cccc(C)c1)c1ccc2ccccc2c1 [I-7, (Z)-3-methyl-N′-(1-(naphthalen-2-yl)ethylidene)benzohydrazide]
19 | C/C(=N\NC(=O)c1ccc(-n2cnnn2)cc1)c1ccc2ccccc2c1 [I-8, (E)-N′-(1-(naphthalen-2-yl)ethylidene)-4-(1H-tetrazol-1-yl)benzohydrazide]
17 | C/C(=N\NC(=O)c1ccc2c(c1)OCO2)c1cccnc1 [I-10, (E)-N′-(1-(pyridin-3-yl)ethylidene)benzo[d][1,3]dioxole-5-carbohydrazide]
17 | C/C(=N\NC(=O)c1cccc2ccccc12)c1ccc(C)c(C)c1 [I-11, (E)-N′-(1-(3,4-dimethylphenyl)ethylidene)-1-naphthohydrazide]
16 | C/C(=N\NC(=O)c1ccccc1F)c1ccncc1 [I-12, (E)-2-fluoro-N′-(1-(pyridin-4-yl)ethylidene)benzohydrazide]
16 | COc1ccc2cc(/C(C)=N/NC(=O)c3ccc4c(c3)OCO4)ccc2c1 [I-13, (E)-N′-(1-(6-methoxynaphthalen-2-yl)ethylidene)benzo[d][1,3]dioxole-5-carbohydrazide]
16 | C/C(=N\NC(=O)c1n[nH]c2c1CCCC2)c1ccc2ccccc2c1 [I-14, (E)-N′-(1-(naphthalen-2-yl)ethylidene)-4,5,6,7-tetrahydro-1H-indazole-3-carbohydrazide]
15 | C/C(=N\NC(=O)c1cc(C)n[nH]1)c1ccc2ccccc2c1 [I-15, (E)-3-methyl-N′-(1-(naphthalen-2-yl)ethylidene)-1H-pyrazole-5-carbohydrazide]
14 | CCCCCC(=O)N/N=C(\C)c1cccc2ccccc12 [I-16, (E)-N′-(1-(naphthalen-1-yl)ethylidene)hexanehydrazide]
14 | C/C(=N/NC(=O)c1ccccc1)C(=O)O [I-17, (Z)-2-(2-benzoylhydrazineylidene)propanoic acid]
13 | C/C(=N\NC(=O)c1ccccc1C)c1ccccn1 [I-18, (E)-2-methyl-N′-(1-(pyridin-2-yl)ethylidene)benzohydrazide]
13 | CCC/C=N/NC(=O)c1ccccc1 [I-19, (E)-N′-butylidenebenzohydrazide]
12 | COc1ccc2cc(/C(C)=N/NC(=O)c3ccc(OC)c(OC)c3)ccc2c1 [I-20, (E)-3,4-dimethoxy-N′-(1-(6-methoxynaphthalen-2-yl)ethylidene)benzohydrazide]

% Inhibition of Apyrase [%] | Structure (SMILES)
12 | C/C(=N/NC(=O)c1ccc2nc[nH]c2c1)c1ccc2ccccc2c1 [I-21, (Z)-N′-(1-(naphthalen-2-yl)ethylidene)-1H-benzo[d]imidazole-6-carbohydrazide]
12 | C/C(=N\NC(=O)c1ccccc1)c1ccc(-c2ccccc2)cc1 [I-22, (E)-N′-(1-([1,1′-biphenyl]-4-yl)ethylidene)benzohydrazide]
12 | C/C(=N\NC(N)=O)c1cccc2ccccc12 [I-23, (E)-2-(1-(naphthalen-1-yl)ethylidene)hydrazine-1-carboxamide]
11 | CCCCCC(=O)N/N=C(/C)c1ccc2ccccc2c1 [I-24, (Z)-N′-(1-(naphthalen-2-yl)ethylidene)hexanehydrazide]
11 | CCc1ccc(/C=N/NC(=O)c2ccccc2)cc1 [I-25, (E)-N′-(4-ethylbenzylidene)benzohydrazide]
11 | CC(C)(C)/C=N/NC(=O)c1ccccc1 [I-26, (E)-N′-(2,2-dimethylpropylidene)benzohydrazide]
10 | C/C(=N\NC(=O)c1ccc(Cl)cc1Cl)c1ccccn1 [I-27, (E)-2,4-dichloro-N′-(1-(pyridin-2-yl)ethylidene)benzohydrazide]
10 | C/C(=N\NC(=O)c1cccc([N+](=O)[O-])c1)c1ccc2ccccc2c1 [I-29, (E)-N′-(1-(naphthalen-2-yl)ethylidene)-3-nitrobenzohydrazide]
10 | CCCC(CCC)=NNC(=O)c1ccccc1F [I-30, 2-fluoro-N′-(heptan-4-ylidene)benzohydrazide]
10 | C/C(=N\NC(=O)c1cccc(Cl)c1)c1ccc2ccccc2c1 [I-31, (E)-3-chloro-N′-(1-(naphthalen-2-yl)ethylidene)benzohydrazide]
10 | C/C(=N/NC(=O)c1cccc(C)c1)C1CC1 [I-32, (Z)-N′-(1-cyclopropylethylidene)-3-methylbenzohydrazide]
10 | Cc1ccc(/C=N/NC(=O)c2ccccc2)cc1 [I-33, (E)-N′-(4-methylbenzylidene)benzohydrazide]
74 | CC(=NNC(=O)c1cccc(C)c1)c1ccc2c(c1)CCCC2 [I-204, (E)-3-methyl-N′-(1-(5,6,7,8-tetrahydronapthalen-2-yl)ethylidene)benzohydrazide]
68 | C/C(=N\NC(=O)c1cnnc(C)c1)c1ccc2ccccc2c1 [I-205, (E)-6-methyl-N′-(1-(naphthalen-2-yl)ethylidene)pyridazine-4-carbohydrazide]
68 | C/C(=N\NC(=O)c1ccc(C)c(C)c1)c1ccc2ccccc2c1 [I-206, (E)-3,4-dimethyl-N′-(1-(naphthalen-2-yl)ethylidene)benzohydrazide]
68 | C/C(=N\NC(=O)c1cc(C)cs1)c1ccc2ccccc2c1 [I-207, (E)-4-methyl-N′-(1-(naphthalen-2-yl)ethylidene)thiophene-2-carbohydrazide]
66 | C/C(=N\NC(=O)c1ccc(NS(C)(=O)=O)cc1)c1ccc2ccccc2c1 [I-208, (E)-N-(4-(2-(1-(naphthalen-2-yl)ethylidene)hydrazine-1-carbonyl)phenyl)methanesulfonamide]
65 | C/C(=N\NC(=O)c1cccc(N(C)C)c1)c1ccc2ccccc2c1 [I-209, (E)-3-(dimethylamino)-N′-(1-(naphthalen-2-yl)ethylidene)benzohydrazide]

Reference: patent US20240101510A1, “APYRASE INHIBITORS” (Texas Crop Science, priority 2022, published 2024)
